Source: article PMC8809408 (Frontiers in Pharmacology, 2022)
Where a name gives a salt, the structure may show the parent alone. Read-outs that look alike come from different tables or passages of the source.

Key:
[1] = test system: pseudotyped lentiviruses harboring S-protein of SARS-CoV-2; experiment: microbe, parasite or virus in culture; assay type: cell-based
[2] = test system: pseudotyped viruses carrying N501Y mutation in S protein; assay type: cell-based, SARS-CoV-2
[3] = test system: pseudotyped viruses carrying K417N mutation in S protein; assay type: cell-based, SARS-CoV-2
[4] = test system: pseudotyped viruses carrying E484K mutation in S protein; assay type: cell-based, SARS-CoV-2
[5] = test system: pseudotyped viruses, triple mutant (N501Y/K417N/E484K) S protein; assay type: cell-based, SARS-CoV-2
[6] = Severe acute respiratory syndrome coronavirus 2, 24 h

CN(C)CCCC1(c2ccc(F)cc2)OCc2cc(C#N)ccc21 (centres unmarked) [Citalopram]
luciferase reporter activity (viral infection) [1]: significantly reduced luciferase reporter activity | selectivity index (SI) [1]: 9.97 | effectiveness against SARS-CoV-2 spike pseudotyped viruses compared with VSV-G pseudotyped viruses (luciferase activity) ([1]; 24 h): more effective | IC50 [1, 6]: 27.5 µM

N[C@]1(c2ccccc2Cl)CCC[C@H](O)C1=O [2S,6S-HNK, 2S, 6S-Hydroxynorketamine]
luciferase reporter activity (viral infection) [1]: neither ketamine nor the metabolites were effective

NC(=O)N1c2ccccc2C=Cc2ccccc21 [Carbamazepine]
luciferase reporter activity (viral infection) [1]: failed to change the viral infection

NNCCc1ccccc1 [Phenelzine]
luciferase reporter activity (viral infection) [1]: failed to prevent the viral entry

COc1ccc(C2CNC(=O)C2)cc1OC1CCCC1 (centres unmarked) [Rolipram]
luciferase reporter activity (viral infection) [1]: failed to prevent the viral entry

OCCN1CCN(CCC=C2c3ccccc3Sc3ccc(C(F)(F)F)cc32)CC1 [Flupenthixol]
luciferase reporter activity (viral infection) [1]: Decline of luciferase reporter activity | selectivity index (SI) [1]: 18.11 | effectiveness against SARS-CoV-2 spike pseudotyped viruses compared with VSV-G pseudotyped viruses (luciferase activity) ([1]; 24 h): more effective | IC50 [1, 6]: 1.07 µM

CNCCCN1c2ccccc2CCc2ccccc21 [Desipramine]
luciferase reporter activity (viral infection) [1]: significantly reduced luciferase reporter activity | effectiveness against SARS-CoV-2 spike pseudotyped viruses compared with VSV-G pseudotyped viruses (luciferase activity) ([1]; 24 h): more effective | IC50 [1, 6]: 8.1 µM

CN(C)CCCN1c2ccccc2CCc2ccc(Cl)cc21 [Clomipramine]
effectiveness against SARS-CoV-2 spike pseudotyped viruses compared with VSV-G pseudotyped viruses (luciferase activity) [1]: more effective | luciferase reporter activity (viral infection) [1]: significantly reduced luciferase reporter activity

CN(C)C(=O)COC(=O)Cc1ccc(OC(=O)c2ccc(NC(=N)N)cc2)cc1 [Camostat mesylate]
luciferase reporter activity (viral infection) [1]: significantly reduced

Fc1ccc([C@@H]2CCNC[C@H]2COc2ccc3c(c2)OCO3)cc1 [Paroxetine]
luciferase reporter activity (viral infection) [1]: significantly reduced luciferase reporter activity | selectivity index (SI) [1]: 1.76 | effectiveness against SARS-CoV-2 spike pseudotyped viruses compared with VSV-G pseudotyped viruses (luciferase activity) ([1]; 24 h): more effective | IC50 [1, 6]: 12.6 µM

N[C@@]1(c2ccccc2Cl)CCC[C@@H](O)C1=O [2R,6R-HNK, 2R, 6R-Hydroxynorketamine]
luciferase reporter activity (viral infection) [1]: neither ketamine nor the metabolites were effective

CCOc1ccccc1OC(c1ccccc1)C1CNCCO1 (centres unmarked) [Reboxetine]
luciferase reporter activity (viral infection) [1]: significantly reduced luciferase reporter activity | effectiveness against SARS-CoV-2 spike pseudotyped viruses compared with VSV-G pseudotyped viruses (luciferase activity) ([1]; 24 h): more effective | IC50 [1, 6]: 17.7 µM

CN(C)CCCN1c2ccccc2CCc2ccccc21 [Imipramine]
IC50 [1]: 3 µM | luciferase reporter activity (viral infection) [1]: significantly reduced luciferase reporter activity | selectivity index (SI) [1]: 22.83 | IC50 [1, 6]: 3.01 µM

COc1ccc(C(CN(C)C)C2(O)CCCCC2)cc1 (centres unmarked) [Venlafaxine]
luciferase reporter activity (viral infection) [1]: significantly reduced luciferase reporter activity | IC50 [1, 6]: 36.4 µM

O=c1[nH]c2ccccc2n1C1CCN(CCCC(c2ccc(F)cc2)c2ccc(F)cc2)CC1 [Pimozide]
luciferase reporter activity (viral infection) [1]: Decline of luciferase reporter activity | effectiveness against SARS-CoV-2 spike pseudotyped viruses compared with VSV-G pseudotyped viruses (luciferase activity) ([1]; 24 h): more effective | IC50 [1, 6]: 4.54 µM

CN(C)CCCN1c2ccccc2Sc2ccc(Cl)cc21 [Chlorpromazine]
IC50 [1]: 0.972 µM | luciferase reporter activity (viral infection) [1]: Decline of luciferase reporter activity | effectiveness against SARS-CoV-2 spike pseudotyped viruses compared with VSV-G pseudotyped viruses (luciferase activity) ([1]; 24 h): more effective | IC50 [1, 6]: 0.973 µM

CNCCC(Oc1ccc(C(F)(F)F)cc1)c1ccccc1 (centres unmarked) [Fluoxetine]
effectiveness against SARS-CoV-2 spike pseudotyped viruses compared with VSV-G pseudotyped viruses (luciferase activity) [1]: more effective | luciferase reporter activity (viral infection) [1]: significantly reduced luciferase reporter activity | luciferase reporter activity, WT spike pseudovirus [1]: significantly reduced the luciferase reporter activity | luciferase reporter activity, N501Y pseudovirus [2]: significantly reduced the luciferase reporter activity | luciferase reporter activity, K417N pseudovirus [3]: significantly reduced the luciferase reporter activity | luciferase reporter activity, E484K pseudovirus [4]: significantly reduced the luciferase reporter activity | luciferase reporter activity, triple mutant (N501Y/K417N/E484K) pseudovirus [5]: significantly reduced the luciferase reporter activity

CNC1(c2ccccc2Cl)CCCCC1=O (centres unmarked) [Ketamine]
luciferase reporter activity (viral infection) [1]: neither ketamine nor the metabolites were effective
